Data set [1] relates to HT-29 (colon cancer). The data set can be described thus: CellTiter-Glo (CTG) luminescent cell viability assay, HT-29. The class given is cell-based, Human. Conditions: HT-29, 48 hours. As to the method:
(§1) Luciferase luminescence were recorded for each well.
On the technique in general: ATP-based viability assays read luminescence as a measure of living cells.

For data set [2], the system named is NCI H2342 non-small cell lung cancer (NSCLC), adenocarcinoma subtype. The data set can be described thus: CellTiter-Glo (CTG) luminescent cell viability assay, NCI H2342. Conditions: NCI H2342, 48 hours of treatment. The class given is cell-based, Human. As to the method:
as §1

The test system of data set [3] is AML12 liver cells. Nature of the data set: Toxicity on AML12 non-cancerous liver cells. It is filed as cell-based. Conditions: all doses studied (16 nM to 128 nM), 48 hours. The source says:
(§2) Methodologies used for cell line AML12 (non-cancerous liver cells) and CCD841 (non-cancerous colon epithelial cells) are similar to the methods used for cancer cells.

Data set [4] concerns CCD841 colon epithelium cells. The data set can be described thus: Toxicity on CCD841 non-cancerous colon epithelial cells. The class given is cell-based. The following applies: all concentrations tested (16 nM, 32 nM, 64 nM, 128 nM), 48 hours.
Description: as §2

The text below walks through data of US12336994B2, “Alpha polyglutamated tetrahydrofolates and uses thereof” (L.E.A.F. HOLDINGS GROUP LLC, priority 2018, dated 2025).

SMILES strings stand for the structures.

Regarding `Nc1nc2[nH]cc(CCc3ccc(C(=O)N[C@@H](CCC(=O)N[C@@H](CCC(=O)N[C@@H](CCC(=O)N[C@@H](CCC(=O)N[C@@H](CCC(=O)N[C@@H](CCC(=O)O)C(=O)O)C(=O)O)C(=O)O)C(=O)O)C(=O)O)C(=O)O)cc3)c2c(=O)[nH]1` [gG6, free pemetrexed L-gamma hexaglutamate], the “potency (cytotoxic activity, dose response) compared among test articles and pemetrexed” value in data set [1] (listed as free L gamma G6) is listed as “lowest potency”; in data set [1] (listed as free pemetrexed gG6), “least potent”; in data set [2] (listed as free L gamma G6), “lowest potency”; in data set [2] (listed as free pemetrexed gG6), “least potent”.
For the compound `Nc1nc2[nH]cc(CCc3ccc(C(=O)N[C@@H](CCC(=O)O)C(=O)O)cc3)c2c(=O)[nH]1` [pemetrexed], in data set [3], the “reduction in the AML12 liver cell counts” value is reported as “approximately 40%”. For the same compound, the “decrease in the number of CCD841 colon epithelium cells” value in data set [4] is given as at least 50%.
